Experimental data: article PMC5796017, “Enantiomeric Effect of D-Amino Acid Substitution on the Mechanism of Action of α-Helical Membrane-Active Peptides” (International Journal of Molecular Sciences, 2017)
Converted amounts (≈) assume the structure as drawn.

Key:
[1] = test system: P. aeruginosa ATCC27853; assay: Antimicrobial activity, microtiter dilution MIC; assay type: cell-based, Pseudomonas aeruginosa; settings: G−; MH medium, 5 × 10^5 CFU/mL, 37 °C, 24 h, triplicate
Description: (§1) The antimicrobial activity of the peptides was determined by the standard microtiter dilution method and indicated as MIC (minimal inhibitory concentration) as described previously. Briefly, bacteria were cultured in Mueller–Hinton (MH) medium overnight at 37 °C, diluted to a final inoculum of 5 × 10^5 colony-forming units (CFU)/mL with MH and loaded into 96-well microtiter plates (90 μL/well) with serial dilution of peptides (10 μL/well), with a further incubation at 37 °C for 24 h. MIC was expressed as the lowest peptide concentration that inhibited the growth of bacteria. The antimicrobial assays were repeated in triplicate.

[2] = Circular dichroism (CD) secondary structure; assay type: physicochemical; settings: for [θ]222, benign / [θ]222, 50% TFE: CD, 75 μM peptide, 25 °C; for [θ]222, benign: KP buffer (100 mM KCl, 50 mM KH2PO4/K2HPO4, pH 7.4); for [θ]222, 50% TFE / α-Helix (%), 50% TFE (relative helicity): KP buffer with 50% TFE; for α-Helix (%), 50% TFE (relative helicity) / α-Helix (%), benign: relative to molar ellipticity of V13K in 50% TFE; for α-Helix (%), benign: KP buffer
Text: The influence of the amino acid substitutions on the peptide secondary structure were investigated using circular dichroism (CD) spectroscopy under benign conditions (KP buffer) and under conditions designed to mimic the hydrophobic environment of the membrane (KP buffer with 50% TFE). D-amino acid substitutions reduced the helicity of the peptide analogs relative to that of peptide V13K, in both KP buffer and KP buffer with 50% TFE. […] As shown in Table 2 and Figure S1, the values of the relative helicity of peptides with polar face substitutions are in the order of K14D (76.99%) > S11D/K14D (51.33%) > S11D/K14D/T15D (38.67%). Similarly, the relative helicity of the peptides with substitutions on the non-polar face follows the same trend: A12D (70.83%) > F9D/A12D (38.26%) > F9D/A12D/V16D (36.41%). Since the values of the relative helicity of the peptides with D-amino acid substitutions on the non-polar face were less than those peptide analogs with the same number of D-amino acid substitutions on the polar face, it is clear that the amino acid residues on the non-polar face may be more important for stabilizing the α-helical structure than residues on the polar face.
The secondary structures of the peptides were examined using a Jasco J-810 CD spectrometer (Jasco, Easton, MD, USA) at 25 °C as described previously. […] The mean residue molar ellipticities were calculated according to the equation [θ] = θ/10lCMn, in which, θ represents the ellipticity in millidegrees, l is the optical path length of the cuvette in centimeters, CM is the peptide concentration in mol/L, and n is the number of residues in the peptide. The mean residue molar ellipticities at 222 nm, [θ]222 (degree·cm^2·dmol^−1), were used to calculate the relative helical content of the peptides.

[3] = test system: S. epidermidis ATCC12228; assay: Antimicrobial activity, microtiter dilution MIC; assay type: cell-based, Staphylococcus epidermidis; settings: G+; MH medium, 5 × 10^5 CFU/mL, 37 °C, 24 h, triplicate
Description: as §1

[4] = test system: S. aureus ATCC25923; assay: Antimicrobial activity, microtiter dilution MIC; assay type: cell-based, Staphylococcus aureus; settings: G+; MH medium, 5 × 10^5 CFU/mL, 37 °C, 24 h, triplicate
Description: as §1

[5] = test system: BxPC-3; assay: MTT cell viability assay; assay type: cell-based, human; settings: BxPC-3, MTT, 24 h; mean ± SEM of three independent determinations
Description: (§2) HeLa, MIA PaCa-2, HPAC, and Bxpc-3 cells were maintained in Dulbecco’s modified Eagle medium) with 10% fetal bovine serum, penicillin (100 U/mL), and streptomycin ([…]) in a humid atmosphere at 37 °C with 5% CO2. The effect of the peptides on the survival of HeLa, MIA PaCa-2, HPAC, and Bxpc-3 cells was determined by 3-(4,5-dimethyl-2-thiazolyl)-2,5-diphenyl-2H-tetrazolium bromide (MTT) assay, as described in a previous study. Briefly, cells were seeded in 96-well plates at a density of 5000 per well. After overnight incubation, cells were incubated, in the absence, or presence of various concentrations of peptides for 24 h. Then, the formazan crystals formed by MTT were dissolved with dimethyl sulfoxide (DMSO) and the absorbance was determined at 492 nm with a microplate reader (GF-M3000; Gaomi Caihong Analytical Instruments Co., Shandong, China). The results were expressed as IC50 values, representing the concentration at which cell viability was reduced by 50%. The cytotoxicity assays were repeated in triplicate.

[6] = test system: HPAC; assay: MTT cell viability assay; assay type: cell-based, human; settings: 24 h, mean ± SEM of three independent determinations
Description: as §2

[7] = test system: HeLa; assay: MTT cell viability assay; assay type: cell-based, human; settings: 24 h, mean ± SEM of three independent determinations
Description: as §2

[8] = test system: MIA PaCa-2; assay: MTT cell viability assay; assay type: cell-based, human; settings: MIA PaCa-2, MTT, 24 h; mean ± SEM of three independent determinations
Description: as §2

[9] = test system: human red blood (hRBC) cells; assay: Hemolytic activity assay; assay type: cell-based; settings: 2% human RBC in PBS, 37 °C, 2 h, absorbance 578 nm, triplicate
Description: The […] of the peptides was measured by a hemolytic activity assay as described previously. Briefly, healthy human RBCs were collected using an anticoagulation tube with EDTAK2 and centrifuged at 1000 rpm for 5 min. The erythrocytes were washed three times, then diluted to a concentration of 2% in phosphate-buffered saline (PBS). The peptides were serially diluted in PBS and 70 μL of the peptide solutions and 2% RBC suspension were added simultaneously to each well of a 96-well plate (round bottom) for a further incubation at 37 °C for 2 h. Then, the plates were centrifuged for 10 min at 3000 rpm and the supernatant (90 μL) was transferred to a 96-well plate (flat bottom). The absorbance of the supernatant was measured on a microplate reader at 578 nm. Erythrocytes in PBS and distilled water were used as the negative (0%) and positive (100%) controls, respectively. The hemolytic activity was calculated as the percentage of experimental group over positive control (100%), after subtraction of negative control (0%). The hemolytic assays were repeated in triplicate.

[10] = RP-HPLC retention time as relative hydrophobicity; assay type: physicochemical; settings: 25 °C, used by the paper as measure of relative hydrophobicity
Description: The RP-HPLC retention time has been widely used to represent the relative hydrophobicity of peptides in many studies.The relative hydrophobicity of the peptides was determined by the RP-HPLC retention times at 25 °C. The change in hydrophobicity of the peptides caused by D-amino acid substitutions was mainly due to the disruption of the helical structure.

[11] = test system: E. coli ATCC25922; assay: Antimicrobial activity, microtiter dilution MIC; assay type: cell-based, Escherichia coli; settings: G−; MH medium, 5 × 10^5 CFU/mL, 37 °C, 24 h, triplicate
Description: as §1

SMILES	MIC [1]	[θ]222, benign [2]	[θ]222, 50% TFE [2]	α-Helix (%), 50% TFE (relative helicity) [2]	α-Helix (%), benign [2]	MIC [3]	MIC [4]	IC50 [5]	IC50 [6]	IC50 [7]	IC50 [8]	MHC (minimal hemolytic concentration) [9]	tR (RP-HPLC retention time), relative hydrophobicity [10]	MIC [11]
CC[C@H](C)[C@H](NC(=O)[C@H](C)NC(=O)[C@H](CCCCN)NC(=O)[C@H](CC(C)C)NC(=O)[C@H](C)NC(=O)[C@@H](NC(=O)[C@H](Cc1c[nH]cn1)NC(=O)[C@H](CC(C)C)NC(=O)[C@@H](NC(=O)[C@@H](NC(=O)[C@H](CCCCN)NC(=O)[C@H](CCCCN)NC(=O)[C@@H](C)NC(=O)[C@H](CO)NC(=O)[C@H](CCCCN)NC(=O)[C@H](Cc1ccccc1)NC(=O)[C@@H](NC(=O)[C@H](CCCCN)NC(=O)[C@H](CC(C)C)NC(=O)[C@H](Cc1ccccc1)NC(=O)[C@H](CO)NC(=O)[C@H](CCCCN)NC(=O)[C@H](Cc1c[nH]c2ccccc12)NC(=O)[C@H](CCCCN)NC(C)=O)[C@@H](C)O)[C@@H](C)O)C(C)C)[C@@H](C)O)C(=O)N[C@@H](CO)C(=O)N[C@@H](CO)C(N)=O [Peptide A12D]	16 µM (≈ 47.9 µg/mL)	−4130.9 degree·cm^2·dmol^−1	−35,785.1 degree·cm^2·dmol^−1	70.83%	8.2%	16 µM (≈ 47.9 µg/mL)	64 µM (≈ 191 µg/mL)	45.1 ± 1 µM	15.5 ± 1.7 µM	28.8 ± 0.8 µM	29.9 ± 4.8 µM	125 µM	41.46 min	32 µM (≈ 95.7 µg/mL)
CC[C@H](C)[C@H](NC(=O)[C@H](C)NC(=O)[C@H](CCCCN)NC(=O)[C@H](CC(C)C)NC(=O)[C@H](C)NC(=O)[C@@H](NC(=O)[C@H](Cc1c[nH]cn1)NC(=O)[C@H](CC(C)C)NC(=O)[C@@H](NC(=O)[C@H](NC(=O)[C@@H](CCCCN)NC(=O)[C@H](CCCCN)NC(=O)[C@H](C)NC(=O)[C@@H](CO)NC(=O)[C@H](CCCCN)NC(=O)[C@H](Cc1ccccc1)NC(=O)[C@@H](NC(=O)[C@H](CCCCN)NC(=O)[C@H](CC(C)C)NC(=O)[C@H](Cc1ccccc1)NC(=O)[C@H](CO)NC(=O)[C@H](CCCCN)NC(=O)[C@H](Cc1c[nH]c2ccccc12)NC(=O)[C@H](CCCCN)NC(C)=O)[C@@H](C)O)[C@H](C)O)C(C)C)[C@@H](C)O)C(=O)N[C@@H](CO)C(=O)N[C@@H](CO)C(N)=O [S11D/K14D/T15D]	125 µM (≈ 374 µg/mL)	−2845.85 degree·cm^2·dmol^−1	−19,537.5 degree·cm^2·dmol^−1	38.67%	5.6%	16 µM (≈ 47.9 µg/mL)	64 µM (≈ 191 µg/mL)	45.5 ± 5.6 µM	54.2 ± 1.2 µM	41.1 ± 0.5 µM	56.8 ± 3.3 µM	250 µM	39.59 min	125 µM (≈ 374 µg/mL)
CC[C@H](C)[C@H](NC(=O)[C@H](C)NC(=O)[C@H](CCCCN)NC(=O)[C@H](CC(C)C)NC(=O)[C@H](C)NC(=O)[C@@H](NC(=O)[C@H](Cc1c[nH]cn1)NC(=O)[C@H](CC(C)C)NC(=O)[C@@H](NC(=O)[C@@H](NC(=O)[C@@H](CCCCN)NC(=O)[C@H](CCCCN)NC(=O)[C@H](C)NC(=O)[C@@H](CO)NC(=O)[C@H](CCCCN)NC(=O)[C@H](Cc1ccccc1)NC(=O)[C@@H](NC(=O)[C@H](CCCCN)NC(=O)[C@H](CC(C)C)NC(=O)[C@H](Cc1ccccc1)NC(=O)[C@H](CO)NC(=O)[C@H](CCCCN)NC(=O)[C@H](Cc1c[nH]c2ccccc12)NC(=O)[C@H](CCCCN)NC(C)=O)[C@@H](C)O)[C@@H](C)O)C(C)C)[C@@H](C)O)C(=O)N[C@@H](CO)C(=O)N[C@@H](CO)C(N)=O [S11D/K14D]	32 µM (≈ 95.7 µg/mL)	−3524.85 degree·cm^2·dmol^−1	−25,931.3 degree·cm^2·dmol^−1	51.33%	7.0%	16 µM (≈ 47.9 µg/mL)	64 µM (≈ 191 µg/mL)	22.4 ± 2.3 µM	25.5 ± 0.5 µM	30.6 ± 0.5 µM	41.3 ± 2.6 µM	125 µM	40.77 min	64 µM (≈ 191 µg/mL)
